Earlier results as cited in patent publication US20240130675A1, “Methods for Treating Autism Spectrum Disorder” (The General Hospital Corporation, priority 2021, published 2024).
Structures can show the parent of a compound that is named as a salt.

Tests used:
[1] = system: older adolescents and young adults with ASDs; conditions: cited from earlier work
ASD = conditions: in vivo; cited from earlier work
ASD children = conditions: cited from earlier work
youth with ASD = conditions: cited from earlier work
ASD symptoms [2] = conditions: 5-19 year-olds, four weeks; only reflected in CGI, not in ABC-CV; cited from earlier work
ASD symptoms [3] = conditions: RCT; cited from earlier work
autism = conditions: RUPP Autism Network study; cited from earlier work

N[C@@H]1CONC1=O [D-Cycloserine]
Stereotypic symptoms, Aberrant Behavior Checklist subscale 3 [1]: improved stereotypic symptoms | Social Responsiveness Scale and Aberrant Behavior Checklist (ASD): statistically and clinically significant improvement

CC(=O)N[C@@H](CS)C(=O)O [NAC, N-Acetylcysteine]
ABC irritability subscale score vs placebo (ASD children): significant improvement | Social impairment (youth with ASD): no significant impact on social impairment

NC12CC3CC(CC(C3)C1)C2 [amantadine hydrochloride]
ASD symptoms vs placebo (ASD symptoms [2]): improvement in ASD symptoms

Nc1nnc(-c2cccc(Cl)c2Cl)c(N)n1 [lamotrigine]
Improvements vs placebo on Autism Behavior Checklist, Aberrant Behavior Checklist, Vineland, PL-ADOS, CARS (ASD symptoms [3]): no significant differences in improvements

Cc1nc2n(c(=O)c1CCN1CCC(c3noc4cc(F)ccc34)CC1)CCCC2 [risperidone]
Response rate, treatment group (autism): 69.4%
